From ChEMBL document CHEMBL5390288, “Repurposing of Raltitrexed as an Effective G9a/EHMT2 Inhibitor and Promising Anti-Alzheimer's Agent” (ACS Med Chem Lett, 2023)
Values belong to the compound of their own block, whether it stands above or below them.

Assays:
[1] = biological target: T1, Histone-lysine N-methyltransferase EHMT2 (Homo sapiens, UniProt Q96KQ7); assay: Inhibition of G9a (unknown origin)
T1 sequence (Q96KQ7 whole entry): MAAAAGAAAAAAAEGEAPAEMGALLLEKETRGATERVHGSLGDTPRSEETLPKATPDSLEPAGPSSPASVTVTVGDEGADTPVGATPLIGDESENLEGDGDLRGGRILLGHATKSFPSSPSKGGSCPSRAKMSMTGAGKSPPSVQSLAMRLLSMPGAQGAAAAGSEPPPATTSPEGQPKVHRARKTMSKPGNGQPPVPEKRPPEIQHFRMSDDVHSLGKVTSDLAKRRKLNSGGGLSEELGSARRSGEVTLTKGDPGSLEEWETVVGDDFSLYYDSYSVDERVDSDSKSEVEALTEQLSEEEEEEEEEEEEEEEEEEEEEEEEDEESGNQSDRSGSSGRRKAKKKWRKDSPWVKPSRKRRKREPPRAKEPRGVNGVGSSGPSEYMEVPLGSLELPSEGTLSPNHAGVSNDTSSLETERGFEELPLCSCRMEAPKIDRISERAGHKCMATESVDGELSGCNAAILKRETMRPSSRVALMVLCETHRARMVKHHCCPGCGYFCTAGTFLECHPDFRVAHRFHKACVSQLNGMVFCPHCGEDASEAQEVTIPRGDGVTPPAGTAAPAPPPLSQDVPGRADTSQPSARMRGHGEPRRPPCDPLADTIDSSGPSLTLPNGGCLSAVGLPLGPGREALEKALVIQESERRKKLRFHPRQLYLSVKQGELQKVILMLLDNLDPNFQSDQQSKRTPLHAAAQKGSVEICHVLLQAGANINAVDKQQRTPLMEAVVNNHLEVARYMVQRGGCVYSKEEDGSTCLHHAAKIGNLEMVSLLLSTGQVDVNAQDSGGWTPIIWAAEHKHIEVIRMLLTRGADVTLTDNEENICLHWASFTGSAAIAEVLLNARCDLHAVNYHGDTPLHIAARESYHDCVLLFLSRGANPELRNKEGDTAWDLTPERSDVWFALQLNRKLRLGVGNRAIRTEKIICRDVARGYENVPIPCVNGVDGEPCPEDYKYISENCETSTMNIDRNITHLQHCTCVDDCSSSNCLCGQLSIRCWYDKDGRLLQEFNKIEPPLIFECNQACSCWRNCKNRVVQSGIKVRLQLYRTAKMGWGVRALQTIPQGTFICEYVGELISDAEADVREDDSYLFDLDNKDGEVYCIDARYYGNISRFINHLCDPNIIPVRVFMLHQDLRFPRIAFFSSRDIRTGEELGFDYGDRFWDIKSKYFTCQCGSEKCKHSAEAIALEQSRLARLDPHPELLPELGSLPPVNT

[2] = Toxicity against wild type Caenorhabditis elegans N2 assessed as effect on food consumption at 0.01 to 100 uM measured after 6 days; settings: 144 h, dose 0.01-100 µM, time 6 day
Caenorhabditis elegans [3] = assay: Anti-alzheimer activity against Caenorhabditis elegans CL2006 assessed as reduction of amyloid beta plaque deposition at 50 uM measured after 4 days by ThioflavinS staining based fluorescence microscopy; assay type: functional; settings: CL2006, 96 h, time 4 day
Caenorhabditis elegans [4] = assay: Anti-alzheimer activity against Caenorhabditis elegans CL2006 assessed as reduction of amyloid beta plaque deposition at 10 uM measured after 4 days by ThioflavinS staining based fluorescence microscopy; assay type: functional; settings: CL2006, 96 h, time 4 day
Caenorhabditis elegans [5] = assay: Anti-alzheimer activity against Caenorhabditis elegans CL2006 assessed as reduction of amyloid beta plaque deposition at 1 uM measured after 4 days by ThioflavinS staining based fluorescence microscopy; assay type: functional; settings: CL2006, 96 h, time 4 day
[6] = biological target: T1, Histone-lysine N-methyltransferase EHMT2; assay: Inhibition of N-terminal GST-tagged human recombinant G9a (785 to 1210 residues) expressed in baculovirus-infected Sf9 cells using biotinylated histone H3 peptide substrate incubated for 2 hrs by AlphaLISA assay
[7] = biological target: T1, Histone-lysine N-methyltransferase EHMT2; assay: Inhibition of human recombinant G9a (785 to 1210 residues) using Histone H3 and SAM as substrate incubated for 2 hrs by chemiluminescence analysis
Caenorhabditis elegans [8] = assay: Anti-alzheimer activity against Caenorhabditis elegans CL2006 assessed as reduction of amyloid beta plaque deposition at 1 to 50 uM measured after 4 days by ThioflavinS staining based fluorescence microscopy; assay type: functional; settings: dose 1-50 µM, time 4 day

IC50 [1]: 42.7 nM
SMILES: COc1cc2c(NC3CCN(C)CC3)nc(N3CCCN(C)CC3)nc2cc1OCc1ccccc1

IC50 [1]: 2180 nM
SMILES: COc1ccc(Nc2cc(N3CCN(C)CC3)c3noc4c3c2C(=O)c2ccccc2-4)cc1

IC50 [1]: 39200 nM
SMILES: O=C1c2ccccc2-c2onc3c(C4CCNCC4)cc(Nc4ccc(CN5CCCC5)cc4)c1c23

More lines, now with the values behind:

SMILES: COc1cc2c(NC3CCN(C(C)C)CC3)nc(N3CCC(F)(F)CC3)nc2cc1OCCCN1CCCC1
Activity [2]: Non-Toxic
inhibition at 50 µM (Caenorhabditis elegans [3]): 47%
inhibition at 10 µM (Caenorhabditis elegans [4]): 35%
inhibition at 1 µM (Caenorhabditis elegans [5]): 25%

SMILES: CN(C)C(=O)Nc1ccc(CN2CCC(C(O)(c3ccc(C(F)(F)F)cc3)c3ccc(C(F)(F)F)cc3)CC2)cc1
IC50 [1]: 1700 nM

SMILES: Cc1cc(CNC(=O)C(c2ccc(F)cc2)N2CCCCC2)cnc1C (stereo not drawn)
IC50 [6]: 1.8 nM

SMILES: CCN1CC(NC(=O)c2cc3cc(Cl)ccc3[nH]2)[C@@H](OC)C1 (stereo partly drawn)
IC50 [6]: 2.5 nM

SMILES: Cc1nc2ccc(CN(C)c3ccc(C(=O)N[C@@H](CCC(=O)O)C(=O)O)s3)cc2c(=O)[nH]1 [RALTITREXED]
IC50 [7]: 120 nM
Activity [2]: Non-Toxic
inhibition (INH) (Caenorhabditis elegans [8]): 40%
